Laboratory results: patent US5439888A, “Antithrombotic agents” (Eli Lilly and Company, priority 1994, dated 1995)

Tests used:
Bovine Thrombin = test: Inhibition of thrombin amidase activity (chromogenic substrate), Kass; assay type: biochemical; conditions: equilibrium association constant, mean over a range of concentrations; substrate N-benzoyl-Phe-Val-Arg-p-nitroanilide
Experimental: (§1) The assay is carried out by mixing 50 μL buffer (0.03M Tris, 0.15M NaCl ,pH 7.4) with 25 μL of bovine thrombin or human thrombin solution (0.21 mg/mL of thrombostat bovine thrombin, Parke-Davis, or purified human thrombin, Enzyme Research Laboratories, South Bend, Ind., at about 8 NIH units/mL, in the same buffer) and 25 μL of test compound in a solvent (in 50% aqueous methanol, v:v). The 150 μL of an aqueous solution of the chromogenic substrate (at 0.25 mg/mL) are added and the rates of hydrolysis of the substrate are measured by monitoring the reactions at 405 nm for the release of p-nitroaniline. Standard curves are constructed by plotting free thrombin concentration against hydrolysis rate. The hydrolysis rates observed with test compounds are then converted to "free thrombin" values in the respective assays by use of the standard curves. The bound thrombin (bound to test compound) is calculated by subtracting the amount of free thrombin observed in each assay from the known initial amount of thrombin used in the assay. The amount of free inhibitor in each assay is calculated by subtracting the number of moles of bound thrombin from the number of moles of added inhibitor (test compound). […]
Kass is calculated for a range of concentrations of test compounds and the mean value is reported in units of liter per mole.

Trypsin = test: Serine protease selectivity assay (chromogenic substrate), Kass, trypsin; assay type: biochemical, bovine; conditions: equilibrium association constant; substrate N-Benzoyl-Phe-Val-Arg-p-nitroanilide
Experimental: [The procedure below names another target; the source says it served here with some conditions changed.] as §1
(§2) Kass is calculated for a range of concentrations of test compounds and the mean value is reported in units of liter per mole. […]

Plasmin = test: Serine protease selectivity assay (chromogenic substrate), Kass, plasmin; assay type: biochemical, human; conditions: equilibrium association constant; substrate H-D-Val-Leu-Lys-p-nitroanilide
Experimental: [The procedure below names another target; the source says it served here with some conditions changed.] as §1, §2

factor Xa = test: Serine protease selectivity assay (chromogenic substrate), Kass, factor Xa; assay type: biochemical, human; conditions: equilibrium association constant; substrate N-Benzoyl-Ile-Glu-Gly-Arg-p-nitroanilide
Experimental: [The procedure below names another target; the source says it served here with some conditions changed.] as §1, §2

t-PA = test: Serine protease selectivity assay (chromogenic substrate), Kass, t-PA; assay type: biochemical; conditions: equilibrium association constant; substrate H-D-Ile-Pro-Arg-p-nitroanilide
Experimental: [The procedure below names another target; the source says it served here with some conditions changed.] as §1, §2

Question: With `C[C@@](C=O)(CCCNC(=N)N)NC(=O)[C@@H]1CCCN1C(=O)[C@@H]1NCCc2ccccc21` [Example 2, D-1-(1,2,3,4-tetrahydroisoquinolinylcarboxyl)-L-prolinyl-L -α-methylarginine aldehyde] as the molecule, how does the Kd (Bovine Thrombin) read?
Answer: The Kd was 4.55 µM.

Question: What about the Kd (Trypsin) of the same molecule?
Answer: Its Kd is 71.4 µM.

Question: And the Kd (Plasmin)?
Answer: Its Kd is 1250 µM.

Question: And the Kd (factor Xa)?
Answer: Its Kd is 1000 µM.

Question: And the “Kass t-PA” value (t-PA)?
Answer: The value was 0 × 10^6 (L/mole).

Question: What does the source list for `CN[C@H](Cc1ccccc1)C(=O)N1CCC[C@H]1C(=O)N[C@](C)(C=O)CCCNC(=N)N` [Example 1, D-N-methylphenylalanyl-L-prolinyl-L-α-methylarginine aldehyde]?
Answer: Kd (Bovine Thrombin): 0.909 µM; Kd (Trypsin): 250 µM; Kd (Plasmin): 2000 µM; Kd (factor Xa): 3330 µM; Kass t-PA (t-PA): 0 × 10^6 (L/mole)
